Test results as given in ChEMBL document CHEMBL1142038, “Novel and potent NPY5 receptor antagonists derived from virtual screening and iterative parallel chemistry design” (Bioorg Med Chem Lett, 2005).

These compounds were tested against T1, Neuropeptide Y receptor type 5 (Mus musculus, UniProt O70342) (assay: Inhibitory concentration against Neuropeptide Y receptor type 5 in mouse; Inactive).
T1 sequence (O70342 whole entry): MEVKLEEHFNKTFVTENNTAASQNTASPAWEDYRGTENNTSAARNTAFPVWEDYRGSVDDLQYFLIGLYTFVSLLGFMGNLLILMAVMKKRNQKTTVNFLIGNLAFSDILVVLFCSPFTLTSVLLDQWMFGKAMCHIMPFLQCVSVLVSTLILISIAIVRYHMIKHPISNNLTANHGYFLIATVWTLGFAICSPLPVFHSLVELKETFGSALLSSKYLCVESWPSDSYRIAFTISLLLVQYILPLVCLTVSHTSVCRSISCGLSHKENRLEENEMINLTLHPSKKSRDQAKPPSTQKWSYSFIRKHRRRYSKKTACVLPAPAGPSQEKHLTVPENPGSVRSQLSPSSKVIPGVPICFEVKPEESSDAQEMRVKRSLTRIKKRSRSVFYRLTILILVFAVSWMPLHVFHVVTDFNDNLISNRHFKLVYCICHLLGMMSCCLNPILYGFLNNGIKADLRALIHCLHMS

IC50 | SMILES
Not Active | O=C(c1cnc(Nc2cc(Cl)cc(Cl)c2)s1)c1ccccc1F

These compounds were tested against T1, Neuropeptide Y receptor type 5 (assay: Inhibitory concentration against Neuropeptide Y receptor type 5 in mouse).
Format: organism-based

IC50 | SMILES
885 nM | O=C(c1cccc(F)c1)c1cnc(Nc2cccc(C(F)(F)F)c2)s1
395 nM | Cc1cc(C(=O)c2cnc(Nc3cccc(C(F)(F)F)c3)s2)c(C)s1
19 nM | N#Cc1cccc(Nc2ncc(C(=O)c3ccccc3F)s2)c1
63 nM | Cc1ccccc1C(=O)c1cnc(Nc2cccc(C(F)(F)F)c2)s1
138 nM | O=C(c1cnc(Nc2cccc(C(F)(F)F)c2)s1)c1ccccc1C(F)(F)F
20 nM | N#Cc1cccc(Nc2ncc(C(=O)c3ccccc3C(F)(F)F)s2)c1
32 nM | CCc1ccccc1C(=O)c1cnc(Nc2cccc(C(F)(F)F)c2)s1

More lines, now with the values behind:

SMILES | IC50
Cc1cc(C(=O)c2cnc(Nc3cccc(C#N)c3)s2)c(C)s1 | 14 nM
COc1ccc(C(=O)c2cnc(Nc3cccc(C#N)c3)s2)cc1 | 2230 nM
CCc1ccccc1C(=O)c1cnc(Nc2cccc(C#N)c2)s1 | 2.8 nM
COc1cccc(Nc2ncc(C(=O)c3ccccc3F)s2)c1 | 1000 nM
O=C(c1cnc(Nc2ccc(Cl)cc2)s1)c1ccccc1F | 1670 nM
Cc1ccccc1C(=O)c1cnc(Nc2cccc(C#N)c2)s1 | 4.2 nM
